Test results as given in the NIST ThermoML archive (doi:10.1016/j.fluid.2017.04.006).
± gives the expanded uncertainty stated by the source. Blank lines part the entries; values can stand above or below the compound they belong to.

Assays:
[1] = xn = mol fraction of the nth substance listed; conditions: 298.15 K, 97.59 kPa, Liquid, Vibrating tube method
[2] = DSC
[3] = Molar enthalpy of transition or fusion; conditions: DSC

mass density ([1]; x1 = 0.008): 1025 ± 5.6 kg/m3 | mass density ([1]; x1 = 0.0188): 1059.9 ± 5.9 kg/m3 | mass density ([1]; x1 = 0.0358): 1110.4 ± 6.2 kg/m3 | mass density ([1]; x1 = 0.0438): 1132.7 ± 6.4 kg/m3 | mass density ([1]; x1 = 0.0621): 1179.8 ± 6.6 kg/m3 | mass density ([1]; x1 = 0.0743): 1209.3 ± 6.8 kg/m3 | mass density ([1]; x1 = 0.0952): 1255.7 ± 7 kg/m3 | mass density ([1]; x1 = 0.1087): 1283.5 ± 7.1 kg/m3 | mass density ([1]; x1 = 0.1247): 1313.8 ± 7.2 kg/m3
Structure (SMILES): CS(=O)(=O)[O-].[Na+] [sodium methanesulfonate] + O

Triple point temperature ([2]; Crystal): 625.95 ± 0.8 K | Molar enthalpy of transition or fusion ([3]; Crystal): 24 ± 0.54 kJ/mol
Structure (SMILES): CS(=O)(=O)[O-].[Na+] [sodium methanesulfonate]

mass density ([1]; x1 = 0.0085): 1014.9 ± 5.5 kg/m3 | mass density ([1]; x1 = 0.0178): 1033.1 ± 5.6 kg/m3 | mass density ([1]; x1 = 0.0275): 1050.8 ± 5.7 kg/m3 | mass density ([1]; x1 = 0.0381): 1068.7 ± 5.8 kg/m3 | mass density ([1]; x1 = 0.051): 1088.7 ± 5.8 kg/m3 | mass density ([1]; x1 = 0.0648): 1108.4 ± 5.9 kg/m3 | mass density ([1]; x1 = 0.0951): 1146.2 ± 5.9 kg/m3 | mass density ([1]; x1 = 0.1144): 1166.9 ± 5.9 kg/m3 | mass density ([1]; x1 = 0.1387): 1190.3 ± 5.8 kg/m3
Structure (SMILES): CS(=O)(=O)[O-].[NH4+] [ammonium methanesulfonate] + O

Triple point temperature ([2]; Crystal 1): 470.05 ± 1.8 K | Triple point temperature ([2]; Crystal 2): 463.05 ± 1.2 K | Molar enthalpy of transition or fusion ([3]; Crystal 1): 8.5 ± 0.5 kJ/mol | Molar enthalpy of transition or fusion ([3]; Crystal 2): 9.7 ± 0.3 kJ/mol
Structure (SMILES): CS(=O)(=O)[O-].[NH4+] [ammonium methanesulfonate]
